Results: patent US10800792B2, “Inhibitors of Bruton's tyrosine kinase and method of their use” (JANSSEN PHARMACEUTICA NV, priority 2015, dated 2020)
Where two headings read alike, the source gives them in different places. One block for each compound: values may come before it.

Target: unphosphorylated-BTK kinase domain (UP-BTK), GST-tagged human BTK (389-659aa) (Homo sapiens (Human), UniProt Q06187)
Experiment: BTK kinase Lanthascreen binding assay
Conditions: 60 minutes incubation, pIC50 = negative log of the IC50 in molar; for IC50: read-out: BTK_I_binding pIC50 (converted)
Method in brief: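 Tracer-displacement binding assay against the non-phosphorylated enzyme, read by Lanthascreen. Reported: pIC50.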

[1] = Lanthascreen tracer competition
[2] = unphosphorylated-BTK kinase domain, 50 nM Tracer 236

Chain of unphosphorylated-BTK kinase domain (UP-BTK), GST-tagged human BTK (389-659aa) (Q06187 389-659): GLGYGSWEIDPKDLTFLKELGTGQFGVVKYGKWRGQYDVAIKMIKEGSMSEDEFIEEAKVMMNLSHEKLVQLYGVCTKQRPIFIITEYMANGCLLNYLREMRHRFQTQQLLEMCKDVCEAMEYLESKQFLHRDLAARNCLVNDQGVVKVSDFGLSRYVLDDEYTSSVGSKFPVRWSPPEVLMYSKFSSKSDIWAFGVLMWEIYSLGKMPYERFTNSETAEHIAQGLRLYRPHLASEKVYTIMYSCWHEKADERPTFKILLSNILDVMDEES

SMILES: C=CC(=O)N1CCC[C@@H](NC(=O)c2sc3nccc4c3c2NC(=O)N4c2ccc(OC3CCOCC3)cc2C)C1 (single isomer, unassigned) [Example 814, (R)—N-(1-Acryloylpiperidin-3-yl)-5-(*R)-(2-methyl-4-((tetrahydro-2H-pyran-4-yl)oxy)phenyl)-4-oxo-4,5-dihydro-3H-1-thia-3,5,8-triazaacenaphthylene-2-carboxamide]
BTK_I_binding pIC50 [1]: <6

SMILES: C=CS(=O)(=O)N1CC[C@@H](NC(=O)c2sc3nccc4c3c2NC(=O)N4c2ccc(Oc3ccccc3)cc2C)C1 (single isomer, unassigned) [Example 834, (R)-5-(*S)-(2-Meth-4-phenoxyphenyl)-4-oxo-N-(1-(vinylsulfonyl)pyrrolidin-3-yl)-4,5-dihydro-3H-1-thia-3,5,8-triazaacenaphthylene-2-carboxamide]
BTK_I_binding pIC50 [1]: 8.0

SMILES: Cc1cc(Oc2ccccc2)ccc1N1C(=O)Nc2c(C(=O)N[C@@H]3CCCN(C(=O)/C=C/CN4CCCC4)C3)sc3nccc1c23 (single isomer, unassigned) [Example 845, (R,E)-5-(*S)-(2-Methyl-4-phenoxyphenyl)-4-oxo-N-(1-(4-(pyrrolidin-1-yl)but-2-enoyl)piperidin-3-yl)-4,5-dihydro-3H-1-thia-3,5,8-triazaacenaphthylene-2-carboxamide]
BTK_I_binding pIC50 [1]: 7.6

SMILES: Cc1cc(Oc2ccccc2)ccc1N1C(=O)Nc2c(C(=O)N[C@@H]3CCCN(C(=O)/C(C#N)=C/C(C)(C)C)C3)sc3nccc1c23 (single isomer, unassigned) [Example 866, (R,E)-N-(1-(2-Cyano-4,4-dimethylpent-2-enoyl)piperidin-3-yl)-5-(*S)-(2-methyl-4-phenoxyphenyl)-4-oxo-4,5-dihydro-3H-1-thia-3,5,8-triazaacenaphthylene-2-carboxamide]
BTK_I_binding pIC50 [1]: 7.3

SMILES: C=CC(=O)N1CC[C@@H](NC(=O)c2sc3nccc4c3c2NC(=O)N4c2cnc(OC(C)C)cc2C)C1 (single isomer, unassigned) [Example 959, (R)—N-(1-Acryloylpyrrolidin-3-yl)-5-(*S)-(6-isopropoxy-4-methylpyridin-3-yl)-4-oxo-4,5-dihydro-3H-1-thia-3,5,8-triazaacenaphthylene-2-carboxamide]
BTK_I_binding pIC50 [2]: 7.5

SMILES: C=CC(=O)N1CC(OC)[C@@H](NC(=O)c2sc3nccc4c3c2NC(=O)N4c2ccc(Oc3ccccc3)cc2C)C1 (stereo in doubt) [Example 34, N-((3S,4R)-1-Acryloyl-4-methoxypyrrolidin-3-yl)-5-(2-methyl-4-phenoxyphenyl)-4-oxo-4,5-dihydro-3H-1-thia-3,5,8-triazaacenaphthylene-2-carboxamide]
IC50 (50 nM Tracer 236): 25.1 nM

SMILES: C=CC(=O)N1CC(O)[C@@H](NC(=O)c2sc3nccc4c3c2NC(=O)N4c2ccc(Oc3ccccc3)cc2C)C1 (stereo in doubt) [Example 50, N-((3S,4S)-1-Acryloyl-4-hydroxypyrrolidin-3-yl)-5-(2-methyl-4-phenoxyphenyl)-4-oxo-4,5-dihydro-3H-1-thia-3,5,8-triazaacenaphthylene-2-carboxamide]
BTK_I_binding pIC50 (50 nM Tracer 236): 7.5

SMILES: Cc1cc(Oc2ccccc2F)ccc1N1C(=O)Nc2c(C(=O)NC3CCCN(C)C3)sc3nccc1c23 (stereo in doubt) [Example 57, (R)-5-(4-(2-Fluorophenoxy)-2-methylphenyl)-N-(1-methylpiperidin-3-yl)-4-oxo-4,5-dihydro-3H-1-thia-3,5,8-triazaacenaphthylene-2-carboxamide]
BTK_I_binding pIC50 (50 nM Tracer 236): 6.8

SMILES: C=CC(=O)N1CC(NC(=O)c2sc3nccc4c3c2NC(=O)N4c2ccc(Oc3ccccc3)cc2)C[C@@H](O)C1 (stereo in doubt) [Example 589, N-((3R,5R)-1-Acryloyl-5-hydroxypiperidin-3-yl)-4-oxo-5-(4-phenoxyphenyl)-4,5-dihydro-3H-1-thia-3,5,8-triazaacenaphthylene-2-carboxamide]
IC50 [1]: 7.94 nM

SMILES: Cc1cc(Oc2ccccc2)ccc1N1C(=O)Nc2c(C(=O)NC3CCCNC3)sc3nccc1c23 (stereo in doubt) [Example 869, (R)-5-(2-Methyl-4-phenoxyphenyl)-4-oxo-N-(piperidin-3-yl)-4,5-dihydro-3H-1-thia-3,5,8-triazaacenaphthylene-2-carboxamide]
IC50 [1]: 50.1 nM

SMILES: Cc1cc(Oc2ccccc2)ccc1N1C(=O)Nc2c(C(=O)NC3CCCN(C(=O)CC#N)C3)sc3nccc1c23 (stereo in doubt) [Example 874, (R)—N-(1-(2-cyanoacetyl)piperidin-3-yl)-5-(2-methyl-4-phenoxyphenyl)-4-oxo-4,5-dihydro-3H-1-thia-3,5,8-triazaacenaphthylene-2-carboxamide]
IC50 [1]: 63.1 nM

SMILES: O=C(NC1CCCN(C(=O)CCCl)C1)c1sc2nccc3c2c1NC(=O)N3c1ccc(Oc2ccccc2)cn1 (stereo in doubt) [Example 906, (R)—N-(1-(3-Chloropropanoyl)piperidin-3-yl)-4-oxo-5-(5-phenoxypyridin-2-yl)-4,5-dihydro-3H-1-thia-3,5,8-triazaacenaphthylene-2-carboxamide]
BTK_I_binding pIC50 [2]: 6.7

SMILES: O=C(NC1CCNC1)c1sc2nccc3c2c1NC(=O)N3c1ccc(Oc2ccccc2)cc1 (stereo in doubt) [Example 934, (S)-4-Oxo-5-(4-phenoxyphenyl)-N-(pyrrolidin-3-yl)-4,5-dihydro-3H-1-thia-3,5,8-triazaacenaphthylene-2-carboxamide]
BTK_I_binding pIC50 [2]: 6.1

SMILES: C=CC(=O)N1C[C@H](O)C[C@@H](NC(=O)c2sc3nccc4c3c2NC(=O)N4c2ccc(Oc3ccccc3)cc2C)C1 [Example 6, N-((3R,5R)-1-Acryloyl-5-hydroxypiperidin-3-yl)-5-(2-methyl-4-phenoxyphenyl)-4-oxo-4,5-dihydro-3H-1-thia-3,5,8-triazaacenaphthylene-2-carboxamide]
IC50 (50 nM Tracer 236): 12.6 nM

SMILES: C=CC(=O)N1C[C@@H](O)C[C@@H](NC(=O)c2sc3nccc4c3c2NC(=O)N4c2ccc(Oc3ccccc3)cc2C)C1 [Example 13, N-((3R,5S)-1-Acryloyl-5-hydroxypiperidin-3-yl)-5-(2-methyl-4-phenoxyphenyl)-4-oxo-4,5-dihydro-3H-1-thia-3,5,8-triazaacenaphthylene-2-carboxamide]
IC50 (50 nM Tracer 236): 15.8 nM

Second part, the compound after the results:

BTK_I_binding pIC50 (50 nM Tracer 236): 7.9
SMILES: C=CC(=O)N1CC(F)C[C@@H](NC(=O)c2sc3nccc4c3c2NC(=O)N4c2ccc(Oc3ccccc3)cc2C)C1 (stereo in doubt) [Example 3, N-((3R,5S)-1-Acryloyl-5-fluoropiperidin-3-yl)-5-(2-methyl-4-phenoxyphenyl)-4-oxo-4,5-dihydro-3H-1-thia-3,5,8-triazaacenaphthylene-2-carboxamide]

BTK_I_binding pIC50 (50 nM Tracer 236): 7.5
SMILES: Cc1cc(Oc2ccccc2)ccc1N1C(=O)Nc2c(C(=O)NC3CCCN(C(=O)/C=C/CO)C3)sc3nccc1c23 (stereo in doubt) [Example 25, (S,E)-N-(1-(4-Hydroxybut-2-enoyl)piperidin-3-yl)-5-(2-methyl-4-phenoxyphenyl)-4-oxo-4,5-dihydro-3H-1-thia-3,5,8-triazaacenaphthylene-2-carboxamide]

IC50 (50 nM Tracer 236): 20 nM
SMILES: C=CC(=O)N1C[C@H](F)C[C@@H](NC(=O)c2sc3nccc4c3c2NC(=O)N4c2ccc(Oc3ccccc3)cc2C)C1 [Example 1, N-((3R,5R)-1-Acryloyl-5-fluoropiperidin-3-yl)-5-(2-methyl-4-phenoxyphenyl)-4-oxo-4,5-dihydro-3H-1-thia-3,5,8-triazaacenaphthylene-2-carboxamide]

BTK_I_binding pIC50 (50 nM Tracer 236): 7.7
SMILES: C=CC(=O)N1CCC[C@@H](NC(=O)c2sc3nccc4c3c2NC(=O)N4c2ccc(Oc3ccccc3)c(F)c2C)C1 [Example 4, (R)—N-(1-Acryloylpiperidin-3-yl)-5-(3-fluoro-2-methyl-4-phenoxyphenyl)-4-oxo-4,5-dihydro-3H-1-thia-3,5,8-triazaacenaphthylene-2-carboxamide]

IC50 (50 nM Tracer 236): 12.6 nM
SMILES: C=CC(=O)N1CC[C@@H](NC(=O)c2sc3nccc4c3c2NC(=O)N4c2ccc(Oc3ccccc3)c(F)c2C)C1 [Example 7, (R)—N-(1-Acryloylpyrrolidin-3-yl)-5-(3-fluoro-2-methyl-4-phenoxyphenyl)-4-oxo-4,5-dihydro-3H-1-thia-3,5,8-triazaacenaphthylene-2-carboxamide]

IC50 (50 nM Tracer 236): 15.8 nM
SMILES: C=CC(=O)N1C[C@H](NC(=O)c2sc3nccc4c3c2NC(=O)N4c2ccc(Oc3ccccc3)cc2C)C[C@@H](OC)C1 [Example 8, N-((3R,5R)-1-Acryloyl-5-methoxypiperidin-3-yl)-5-(2-methyl-4-phenoxyphenyl)-4-oxo-4,5-dihydro-3H-1-thia-3,5,8-triazaacenaphthylene-2-carboxamide]

IC50 (50 nM Tracer 236): 7.94 nM
SMILES: C=CC(=O)N1CCC[C@@H](NC(=O)c2sc3nccc4c3c2NC(=O)N4c2ccc(Oc3ccccc3)cc2F)C1 [Example 10, (R)—N-(1-Acryloylpiperidin-3-yl)-5-(2-fluoro-4-phenoxyphenyl)-4-oxo-4,5-dihydro-3H-1-thia-3,5,8-triazaacenaphthylene-2-carboxamide]

BTK_I_binding pIC50 (50 nM Tracer 236): 7.9
SMILES: C=CC(=O)N1CC[C@@H](NC(=O)c2sc3nccc4c3c2NC(=O)N4c2ccc(Oc3ccccc3)cc2C)C1 [Example 11, (R)—N-(1-Acryloylpyrrolidin-3-yl)-5-(2-methyl-4-phenoxyphenyl)-4-oxo-4,5-dihydro-3H-1-thia-3,5,8-triazaacenaphthylene-2-carboxamide]

BTK_I_binding pIC50 (50 nM Tracer 236): 7.7
SMILES: C=CC(=O)N1CC[C@@H](NC(=O)c2sc3nccc4c3c2NC(=O)N4c2ccc(Oc3ccccc3)cc2Cl)C1 [Example 12, (R)—N-(1-Acryloylpyrrolidin-3-yl)-5-(2-chloro-4-phenoxyphenyl)-4-oxo-4,5-dihydro-3H-1-thia-3,5,8-triazaacenaphthylene-2-carboxamide]
